Experimental data: patent publication US20230365554A1, “SUBSTITUTED PYRROLO-PYRIDINONE DERIVATIVES AND THERAPEUTIC USES THEREOF” (The Broad Institute, Inc., priority 2020, published 2023)

Legend:
human CSNK1D = human CSNK1D (Homo sapiens (Human), UniProt P48730); assay: CSNK1D assay (ADP-Glo, 1 μM ATP); type: biochemical; conditions: median, Table 2, read-out: CSNK1D IC50 [mol/l] (median)
Protocol: CSNK1D-inhibitory activity of compounds of the present invention in presence of 1 μM adenosine-tri-phosphate (ATP) was quantified employing the CSNK1D assay as described in the following paragraphs. In essence, the enzyme activity is measured by quantification of the adenosine-di-phosphate (ADP), which is generated as a co-product of the enzyme reaction, via the “ADP-Glo™ Kinase Assay” kit from the company Promega. This detection system works as follows: In a first step the ATP not consumed in the kinase reaction is quantitatively converted to cAMP employing an adenylate cyclase (“ADP-Glo-reagent”), then the adenylate cyclase is stopped and the ADP generated in the kinase reaction converted to ATP which generates in a luciferase-based reaction a glow-luminescence signal (“Kinase Detection Reagent”).
Recombinant fusion protein of N-terminal Glutathion-S-Transferase (GST) and full-length human CSNK1D, expressed by baculovirus infected insect cells and purified via Glutathion affinity chromatography, was purchased from Life Technologies (product no. PV3665) and used as enzyme. As substrate for the kinase reaction the biotinylated peptide Btn-Ahx-SGSEGDSESGEEEG (C-terminus in amide form) was used which can be purchased e.g. from the company Biosyntan (Berlin-Buch, Germany).
For the assay 50 nl of a 100 fold concentrated solution of the test compound in DMSO was pipetted into a white 1536-well microtiter plate (Greiner Bio-One, Frickenhausen, Germany), 2 μL of a solution of CSNK1D in aqueous assay buffer [50 mM HEPES pH 7.5, 10% (v/v) glycerol, 10 mM MgCl2, 50 mM NaCl, 1 mM dithiothreitol, 0.01% (w/v) bovine serum albumin, 0.01% (v/v) Triton X-100] were added and the mixture was incubated for 15 min at 22° C. to allow pre-binding of the test compounds to the enzyme before the start of the kinase reaction. Then the kinase reaction was started by the addition of 3 μL of a solution of ATP (1.67 μM=>final conc. in the 5 μL assay volume is 1 μM) and peptide substrate (50 μM=>final conc. in the 5 μL assay volume is 30 μM) in assay buffer and the resulting mixture was incubated for a reaction time of 30 min at 22° C. The concentration of CSNK1D was adjusted depending of the activity of the enzyme lot and was chosen appropriate to have the assay in the linear range, a typical concentration is about 0.5 ng/μL. The reaction was stopped by the addition of 2.5 μL of “ADP-Glo-reagent” (1:1.5 fold diluted with water) and the resulting mixture was incubated at 22° C. for 1 h to convert the ATP not consumed in the kinase reaction completely […]. Subsequently 2.5 μL of the “kinase detection reagent” (1.2 fold more concentrated than recommended by the producer) were added, the resulting mixture was incubated at 22° C. for 1 h and then the luminescence measured with a suitable measurement instrument (e.g. Viewlux™ from Perkin-Elmer). The amount of emitted light was taken as a measure for the amount of ADP generated and thereby for the activity of the CSNK1D.
The data were normalised (enzyme reaction without inhibitor=0% inhibition, all other assay components but no enzyme=100% inhibition).

[1] = target: wild-type Epidermal Growth Factor Receptor (EGFR) (Homo sapiens (Human), UniProt P00533); assay: WT-EGFR kinase assay (TR-FRET, 2 mM ATP); type: biochemical; conditions: median or individual measurements, Table 3, read-out: EGFR Wildtyp-2mM ATP IC50 [mol/l] (median)
Text: Inhibitory activity of compounds of the present invention against wild-type Epidermal Growth Factor Receptor (EGFR) was quantified employing the TR-FRET based EGFR assay as described in the following paragraphs.
Recombinant fusion protein of N-terminal Glutathion-S-Transferase (GST) and a fragment of human EGFR (amino acids R669 to A1210), expressed in Sf9 insect cells and purified via affinity chromatography using Glutathion Sepharose as described above, was used as kinase. As substrate for the kinase reaction the biotinylated peptide biotin-Ahx-AEEEEYFELVAKKK (C-terminus in amide form) was used which can be purchased e.g. form the company Biosynthan GmbH (Berlin-Buch, Germany).
For the assay 50 nl of a 100 fold concentrated solution of the test compound in DMSO was pipetted into either a black low volume 384 well microtiter plate or a black 1536 well microtiter plate (both Greiner Bio-One, Frickenhausen, Germany), 2 μL of a solution of EGFR in aqueous assay buffer [50 mM Hepes pH 7.0, 10 mM MgCl2, 1 mM dithiothreitol, 0.5 mM EGTA, 0.3 mM activated sodium ortho-vanadate, 0.005% (w/v) bovine serum albumin, 0.005% (v/v) Tween-20] were added and the mixture was incubated for 15 min at 22° C. to allow pre-binding of the test compounds to the enzyme before the start of the kinase reaction. Then the kinase reaction was started by the addition of 3 μL of a solution of adenosine-tri-phosphate (ATP, 3.33 mM=>final conc. in the 5 μL assay volume is 2 mM) and substrate (1.67 μM=>final conc. in the 5 μL assay volume is 1 μM) in assay buffer and the resulting mixture was incubated for a reaction time of 30 min at 22° C. The concentration of EGFR was adjusted depending of the activity of the enzyme lot and was chosen appropriate to have the assay in the linear range, typical concentration was 7.6 pg/μL. The reaction was stopped by the addition of 3 μL of a solution of HTRF detection reagents (83.3 nM streptavidine-XL665 [Cisbio Bioassays, Codolet, France] and 1.67 nM PT66-Tb-Cryptate, a terbium-cryptate labelled anti-phospho-tyrosine antibody from Cisbio Bioassays [instead of the PT66-Tb-cryptate PT66-Eu-Chelate from Perkin Elmer can also be used]) in an aqueous EDTA-solution (133.3 mM EDTA, 0.2% (w/v) bovine serum albumin in 50 mM HEPES pH 7.5).
The resulting mixture was incubated 1 h at 22° C. to allow the binding of the biotinylated phosphorylated peptide to the streptavidine-XL665 and the PT66-Tb-Cryptate. Subsequently the amount of phosphorylated substrate was evaluated by measurement of the resonance energy transfer from the PT66-Tb-Cryptate to the streptavidine-XL665. Therefore, the fluorescence emissions at 620 nm and 665 nm after excitation at 337 nm were measured in a HTRF reader, e.g. a Pherastar (BMG Labtechnologies, Offenburg, Germany) or a Viewlux (Perkin-Elmer). The ratio of the emissions at 665 nm and at […] was taken as the measure for the amount of phosphorylated substrate. The data were normalised (enzyme reaction without inhibitor=0% inhibition, all other assay components but no enzyme=100% inhibition).

Sequence of human CSNK1D (P48730 whole entry): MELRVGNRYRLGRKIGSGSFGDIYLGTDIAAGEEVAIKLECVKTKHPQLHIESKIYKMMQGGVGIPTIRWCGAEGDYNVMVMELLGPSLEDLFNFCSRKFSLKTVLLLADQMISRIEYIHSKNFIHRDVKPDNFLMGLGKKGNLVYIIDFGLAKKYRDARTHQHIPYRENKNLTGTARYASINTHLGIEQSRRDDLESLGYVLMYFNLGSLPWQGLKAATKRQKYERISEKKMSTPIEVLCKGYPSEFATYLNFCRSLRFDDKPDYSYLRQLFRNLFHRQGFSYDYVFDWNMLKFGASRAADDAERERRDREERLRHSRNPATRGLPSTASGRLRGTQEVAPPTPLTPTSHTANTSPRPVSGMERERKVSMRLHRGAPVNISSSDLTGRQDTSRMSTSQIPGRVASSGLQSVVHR
Sequence of wild-type Epidermal Growth Factor Receptor (EGFR) (P00533 669-1210): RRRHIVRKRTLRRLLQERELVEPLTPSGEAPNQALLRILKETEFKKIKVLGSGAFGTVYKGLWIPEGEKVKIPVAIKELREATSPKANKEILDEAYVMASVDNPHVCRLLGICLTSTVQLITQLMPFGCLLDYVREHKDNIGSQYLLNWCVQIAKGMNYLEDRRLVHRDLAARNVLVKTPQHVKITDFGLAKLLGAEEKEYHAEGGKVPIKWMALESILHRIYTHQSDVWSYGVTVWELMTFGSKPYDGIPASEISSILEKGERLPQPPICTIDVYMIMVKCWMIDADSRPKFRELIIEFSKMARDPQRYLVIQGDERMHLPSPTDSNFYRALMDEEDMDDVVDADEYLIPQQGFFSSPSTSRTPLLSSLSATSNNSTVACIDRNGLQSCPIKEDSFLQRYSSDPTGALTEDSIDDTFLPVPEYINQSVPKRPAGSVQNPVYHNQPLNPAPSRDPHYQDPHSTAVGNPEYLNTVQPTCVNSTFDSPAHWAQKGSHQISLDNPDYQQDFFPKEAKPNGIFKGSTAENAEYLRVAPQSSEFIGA

Row | Compound | IC50 (human CSNK1D) | IC50 [1]
1 | CN1CC(CC(F)(F)F)c2[nH]c(-c3ccnc(NC(=O)Cc4ccc(F)cc4)c3)c(Nc3ccccc3)c2C1=O (racemic) [Example 14, N-{4-[3-anilino-5-methyl-4-oxo-7-(2,2,2-trifluoroethyl)-4,5,6,7-tetrahydro-1H-pyrrolo[3,2-c]pyridin-2-yl]pyridin-2-yl}-2-(4-fluorophenyl)acetamide] | 5.1 nM | 1100 nM
2 | CCC1CNC(=O)c2c1[nH]c(-c1ccnc(NC(=O)C(CC(F)F)c3ccc(F)cc3)c1)c2Nc1ccccc1 (centres unmarked) [Example 4, N-{4-[3-anilino-7-ethyl-4-oxo-4,5,6,7-tetrahydro-1H-pyrrolo[3,2-c]pyridin-2-yl]pyridin-2-yl}-4,4-difluoro-2-(4-fluorophenyl)butanamide] | 16 nM | 1200 nM
3 | CCC1CNC(=O)c2c1[nH]c(-c1ccnc(NC(=O)Cc3ccc(F)cc3)c1)c2Nc1ccccc1 (single isomer, unassigned) [Example 2, N-{4-[3-anilino-7-ethyl-4-oxo-4,5,6,7-tetrahydro-1H-pyrrolo[3,2-c]pyridin-2-yl]pyridin-2-yl}-2-(4-fluorophenyl)acetamide] | 5.2 nM | 190 nM
4 | O=C1N[C@@H]2CCC[C@@H]2c2[nH]c(-c3ccnc(NC(=O)C(CC(F)F)c4ccc(F)cc4)c3)c(Nc3ccccc3)c21 (single isomer, unassigned; (-)) [Example 23, (−)-(2R or S)—N-{4-[cis-3-anilino-4-oxo-1,4,5,5a,6,7,8,8a-octahydrocyclopenta[b]pyrrolo[2,3-d]pyridin-2-yl]pyridin-2-yl}-4,4-difluoro-2-(4-fluorophenyl)butanamide] | 38 nM | 13000 nM
5 | O=C1N[C@@H]2CCC[C@@H]2c2[nH]c(-c3ccnc(NC(=O)C(CC(F)F)c4ccc(F)cc4)c3)c(Nc3ccccc3)c21 (single isomer, unassigned; (-)) [Example 24, (−)-(2R or S)—N-{4-[cis-3-anilino-4-oxo-1,4,5,5a,6,7,8,8a-octahydrocyclopenta[b]pyrrolo[2,3-d]pyridin-2-yl]pyridin-2-yl}-4,4-difluoro-2-(4-fluorophenyl)butanamide] | 24 nM | 310 nM
6 | Cc1cn(C)c(=O)c2c(Nc3ccccc3)c(-c3ccnc(NC(=O)C(C)c4ccc(F)cc4)c3)[nH]c12 (single isomer, unassigned) [Example 41, N-[4-(3-anilino-5,7-dimethyl-4-oxo-4,5-dihydro-1H-pyrrolo[3,2-c]pyridin-2-yl)pyridin-2-yl]-2-(4-fluorophenyl)propanamide] | 88 nM | 9100 nM
7 | CCC1CNC(=O)c2c1[nH]c(-c1ccnc(NC(=O)Cc3ccc(F)cc3)c1)c2Nc1ccccc1 (racemic) [Example 1, N-{4-[3-anilino-7-ethyl-4-oxo-4,5,6,7-tetrahydro-1H-pyrrolo[3,2-c]pyridin-2-yl]pyridin-2-yl}-2-(4-fluorophenyl)acetamide] | 5.5 nM | 57 nM
8 | CC1CN(C)C(=O)c2c1[nH]c(-c1ccnc(NC(=O)Cc3ccc(F)cc3)c1)c2Nc1ccccc1 (single isomer, unassigned; (-)) [Example 7, (−)-N-{4-[3-anilino-5,7-dimethyl-4-oxo-4,5,6,7-tetrahydro-1H-pyrrolo[3,2-c]pyridin-2-yl]pyridin-2-yl}-2-(4-fluorophenyl)acetamide] | 11 nM | 1300 nM
9 | CN1CC(CC(F)F)c2[nH]c(-c3ccnc(NC(=O)Cc4ccc(F)cc4)c3)c(Nc3ccccc3)c2C1=O (racemic) [Example 42, N-{4-[3-anilino-7-(2,2-difluoroethyl)-5-methyl-4-oxo-4,5,6,7-tetrahydro-1H-pyrrolo[3,2-c]pyridin-2-yl]pyridin-2-yl}-2-(4-fluorophenyl)acetamide] | 4.1 nM | 1100 nM
10 | Cc1cn(C)c(=O)c2c(Nc3ccccc3)c(-c3ccnc(NC(=O)C(C)c4ccc(F)cc4)c3)[nH]c12 (racemic) [Example 39, N-[4-(3-anilino-5,7-dimethyl-4-oxo-4,5-dihydro-1H-pyrrolo[3,2-c]pyridin-2-yl)pyridin-2-yl]-2-(4-fluorophenyl)propanamide] | 56 nM | 18000 nM
11 | CN1CC(CC(F)(F)F)c2[nH]c(-c3ccnc(NC(=O)Cc4ccc(F)cc4)c3)c(Nc3cscn3)c2C1=O (racemic) [Example 46, 2-(4-fluorophenyl)-N-{4-[(7RS)-5-methyl-4-oxo-3-(1,3-thiazol-4-ylamino)-7-(2,2,2-trifluoroethyl)-4,5,6,7-tetrahydro-1H-pyrrolo[3,2-c]pyridin-2-yl]pyridin-2-yl}acetamide] | 72 nM | > 20000 nM
12 | O=C1N[C@@H]2CCC[C@@H]2c2[nH]c(-c3ccnc(NC(=O)C(CC(F)F)c4ccc(F)cc4)c3)c(Nc3ccccc3)c21 (single isomer, unassigned; (+)) [Example 22, (+)-(2R or S)—N-{4-[cis-3-anilino-4-oxo-1,4,5,5a,6,7,8,8a-octahydrocyclopenta[b]pyrrolo[2,3-d]pyridin-2-yl]pyridin-2-yl}-4,4-difluoro-2-(4-fluorophenyl)butanamide] | 6.3 nM | > 20000 nM
13 | CN1CC(CC(F)(F)F)c2[nH]c(-c3ccnc(NC(=O)C(CC(F)F)c4ccc(F)cc4)c3)c(Nc3cscn3)c2C1=O (racemic) [Example 52, (2RS)-4,4-difluoro-2-(4-fluorophenyl)-N-{4-[(7RS)-5-methyl-4-oxo-3-[(1,3-thiazol-4-yl)amino]-7-(2,2,2-trifluoroethyl)-4,5,6,7-tetrahydro-1H-pyrrolo[3,2-c]pyridin-2-yl]pyridin-2-yl}butanamide] | 12 nM | > 20000 nM
